Test results from PMC5823406, “Vehicle development, pharmacokinetics and toxicity of the anti-invasive agent 4-fluoro-3’,4’,5’-trimethoxychalcone in rodents” (PLoS ONE, 2018).
Entries after “also recorded” stand apart in the source; their conditions may differ.

Legend:
[1] = Solubility in vehicles, visual determination; format: physicochemical
Method: C16 has low aqueous solubility, which limits the choice of preclinical formulations for in vivo studies. In this work, thirteen vehicles were evaluated for their applicability in single-dose studies (Table 1). For commonly used systems (entries a-e) visual determination of solubility was conducted, while for the more complex systems solubility was assessed by laser nephelometry.

[2] = Plasma stability; format: in vitro ADME; settings: plasma (rat, Sprague-Dawley)
Description: Table 3 In vitro physicochemical, stability and metabolism data. | column: Value

[3] = system: ICR mice; test: Single-dose PO MTD study; format: in vivo; settings: for Necropsy: gross findings: 72 h post dosing; for Autonomic / Behavioral / Neurologic: first 60 min; for Weigt increase (%): over 72 h, average±SD
Method: Male ICR mice (20–26 g), were obtained from BioLASCO Taiwan. Animals were kept in conventional cages with wood chip bedding. Space allocation for 3–5 animals was 30 x 19 x 13 cm. All animals were healthy at the start of the trial and maintained in a well-controlled temperature (20–24°C) and humidity (30%-70%) environment with 12 h light/dark cycles. Free access to a standard lab diet [MFG (Oriental Yeast Co., Ltd., Japan)] and autoclaved tap water were granted.
A single PO and IP dose progression test was conducted in which animals were dosed at a minimum of 72- or 24-h intervals, respectively. C16 (vehicle: 10% Solutol HS-15 / 90% PEG 600) was administered by oral gavage at 10 mL/kg to randomly assigned groups of 2 male and 2 female mice, or by IP injection at 5 mL/kg to randomly assigned groups of 5 male mice. Animals received an initial dose of 10 mg/kg. If 50% of the animals survived for 72 h (PO) or 30 min (IP), the dose for the next cohort was increased. If one or more animals died, the dose for the next cohort was decreased. The next dose level was determined by the decision scheme in Fig 2.
Body weights were recorded before dosing and at the 72- (PO) or 24-h (IP) time point. Gross necropsy was performed in all animals without tissue collection.
dose was increased or decreased in each subsequent test round until the MTD was discovered. Gross necropsy was
performed in all animals without tissue collection.

[4] = system: SK-OV-3; design: method as in PMID 26204510; settings: read-out: IC50 in Matrigel invasion assay (SK-OV-3); cited from earlier work

COc1cc(C(=O)/C=C/c2ccc(F)cc2)cc(OC)c1OC [C16, 4-fluoro-3’,4’,5’-trimethoxychalcone]
Solubility of C16 in vehicle: Result ([1]; 10% (DMSO / Cremophor EL 1:1) / 90% Milli-Q water, 2 mg/mL): Insoluble ^a | Solubility of C16 in vehicle: Result ([1]; 10% DMSO in normal saline, 1 mg/mL): Insoluble ^a | Solubility of C16 in vehicle: Result ([1]; 20% DMSO / 10% (DMSO / Cremophor EL 1:1) / 70% Milli-Q water, 2 mg/mL): Soluble ^a | Solubility of C16 in vehicle: Result ([1]; 50% DMSO in normal saline, 1 mg/mL): Insoluble ^a | Solubility of C16 in vehicle: Result ([1]; DMSO, 10 mg/mL): highly soluble; also recorded: Soluble ^a | half-life at 1 μM [2]: > 2 h | tolerated dose ([3]; ICR mice, PO oral gavage, single dose): 10 to 300 mg/kg | Deaths ([3]; PO 10 mg/kg, F): 0/2 | Necropsy: gross findings ([3]; PO 10 mg/kg, F): none | Autonomic ([3]; PO 10 mg/kg, F): none | Behavioral ([3]; PO 10 mg/kg, F): none | Neurologic ([3]; PO 10 mg/kg, F): none | Weigt increase (%) ([3]; PO 10 mg/kg, F): 2±3% | Deaths ([3]; PO 10 mg/kg, M): 0/2 | Necropsy: gross findings ([3]; PO 10 mg/kg, M): none | Autonomic ([3]; PO 10 mg/kg, M): none | Behavioral ([3]; PO 10 mg/kg, M): none | Neurologic ([3]; PO 10 mg/kg, M): none | Weigt increase (%) ([3]; PO 10 mg/kg, M): 25±3% | Deaths ([3]; PO 30 mg/kg, F): 0/2 | Necropsy: gross findings ([3]; PO 30 mg/kg, F): none | Autonomic ([3]; PO 30 mg/kg, F): none | Behavioral ([3]; PO 30 mg/kg, F): none | Neurologic ([3]; PO 30 mg/kg, F): none | Weigt increase (%) ([3]; PO 30 mg/kg, F): 6±3% | Deaths ([3]; PO 30 mg/kg, M): 0/2 | Necropsy: gross findings ([3]; PO 30 mg/kg, M): none | Autonomic ([3]; PO 30 mg/kg, M): none | Behavioral ([3]; PO 30 mg/kg, M): none | Neurologic ([3]; PO 30 mg/kg, M): none | Weigt increase (%) ([3]; PO 30 mg/kg, M): 18±3% | Deaths ([3]; PO 100 mg/kg, F): 0/2 | Necropsy: gross findings ([3]; PO 100 mg/kg, F): none | Autonomic ([3]; PO 100 mg/kg, F): none | Behavioral ([3]; PO 100 mg/kg, F): Yes: B,C | Neurologic ([3]; PO 100 mg/kg, F): none | Weigt increase (%) ([3]; PO 100 mg/kg, F): 8±1% | Deaths ([3]; PO 100 mg/kg, M): 0/2 | Necropsy: gross findings ([3]; PO 100 mg/kg, M): none | Autonomic ([3]; PO 100 mg/kg, M): none | Behavioral ([3]; PO 100 mg/kg, M): Yes: A,C | Neurologic ([3]; PO 100 mg/kg, M): none | Weigt increase (%) ([3]; PO 100 mg/kg, M): 25±1% | Deaths ([3]; PO 300 mg/kg, F): 0/2 | Necropsy: gross findings ([3]; PO 300 mg/kg, F): none | Autonomic ([3]; PO 300 mg/kg, F): none | Behavioral ([3]; PO 300 mg/kg, F): Yes: A | Neurologic ([3]; PO 300 mg/kg, F): none | Weigt increase (%) ([3]; PO 300 mg/kg, F): 7±3% | Deaths ([3]; PO 300 mg/kg, M): 0/2 | Necropsy: gross findings ([3]; PO 300 mg/kg, M): none | Autonomic ([3]; PO 300 mg/kg, M): none | Behavioral ([3]; PO 300 mg/kg, M): Yes: A | Neurologic ([3]; PO 300 mg/kg, M): none | Weigt increase (%) ([3]; PO 300 mg/kg, M): 17±0% | maximum tolerated single dose ([3]; mouse, oral gavage): > 300 mg/kg | IC50 [4]: < 100 nM
